# Results reported in patent US20070021419A1, “2-Aminophenyl-4-phenylpyrimidines as kinase inhibitors” (Cyclacel Limited, priority 2003, published 2007).
# Legend:
# CDK4/cyclin D1 = CDK4/cyclin D1 (Homo sapiens, UniProt P11802); experiment: Kinase assay, radioactive phosphate incorporation, CDK4/cyclin D1; assay type: biochemical; settings: 100 μM ATP, 30° C.; read-out: Kinase inhibition IC50 CDK4/cyclin D1
# Description: (§1) The compounds from the examples above were investigated for their ability to inhibit the enzymatic activity of various protein kinases. This was achieved by measurement of incorporation of radioactive phosphate from ATP into appropriate polypeptide substrates. Recombinant protein kinases and kinase complexes were produced or obtained commercially. Assays were performed using 96-well plates and appropriate assay buffers (typically 25 mM β-glycerophosphate, 20 mM MOPS, 5 MM EGTA, 1 mM DTT, 1 mM Na3VO3, pH 7.4), into which were added 2-4 μg of active enzyme with appropriate substrates. The reactions were initiated by addition of Mg/ATP mix (15 mM MgCl2+100 μM ATP with 30-50 kBq per well of [γ-^32P]-ATP) and mixtures incubated as required at 30° C. Reactions were stopped on ice, followed by filtration through p81 filterplates or GF/C filterplates (Whatman Polyfiltronics, Kent, UK). After washing 3 times with 75 mM aq orthophosphoric acid, plates were dried, scintillant added and incorporated radioactivity measured in a scintillation counter (TopCount, Packard Instruments, Pangbourne, Berks, UK). Compounds for kinase assay were made up as 10 mM stocks in DMSO and diluted into 10% DMSO in assay buffer.
# CDK2/cyclin E = CDK2/cyclin E (Homo sapiens, UniProt P24941); experiment: Kinase assay, radioactive phosphate incorporation, CDK2/cyclin E; assay type: biochemical; settings: 100 μM ATP, 30° C.; read-out: Kinase inhibition IC50 CDK2/cyclin E
# Method in brief: (§2)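 Recombinant kinase complexes (2-4 μg active enzyme) were incubated at 30° C with polypeptide substrates in buffer of 25 mM β-glycerophosphate, 20 mM MOPS, 5 mM EGTA, 1 mM DTT, 1 mM […], pH 7.4. Reactions began with 15 mM MgCl2 plus 100 μM ATP spiked with [γ-32P]-ATP. Substrate-incorporated radioactivity was counted after filter capture.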
# Saos-2 = experiment: 72-h MTT cytotoxicity assay, Saos-2; assay type: cell-based; settings: Homo sapiens, read-out: 72-h MTT IC50 Saos-2, Saos-2 cell line
# Method in brief: (§3)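 The read-out is MTT reduction: 4 h dark incubation with MTT from a 5 mg/mL stock, then dye solubilised in DMSO. This followed 72 h at 37° C exposure to a 1/3 dilution series of compound in triplicate. Wells were seeded according to doubling time and rested overnight before dosing.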
# [1] = system: transformed human cell lines (A549, HT29, Saos-2); experiment: 72-h MTT cytotoxicity assay, average of cell lines; assay type: cell-based; settings: read-out: 72-h MTT IC50 Average, average of A549, HT29, Saos-2
# Method in brief: as §3
# CDK7/cyclin H = CDK7/cyclin H (Homo sapiens, UniProt P50613); experiment: Kinase assay, radioactive phosphate incorporation, CDK7/cyclin H; assay type: biochemical; settings: 100 μM ATP, 30° C.; read-out: Kinase inhibition IC50 CDK7/cyclin H
# Sequence of CDK7/cyclin H (P50613 whole entry, species assumed): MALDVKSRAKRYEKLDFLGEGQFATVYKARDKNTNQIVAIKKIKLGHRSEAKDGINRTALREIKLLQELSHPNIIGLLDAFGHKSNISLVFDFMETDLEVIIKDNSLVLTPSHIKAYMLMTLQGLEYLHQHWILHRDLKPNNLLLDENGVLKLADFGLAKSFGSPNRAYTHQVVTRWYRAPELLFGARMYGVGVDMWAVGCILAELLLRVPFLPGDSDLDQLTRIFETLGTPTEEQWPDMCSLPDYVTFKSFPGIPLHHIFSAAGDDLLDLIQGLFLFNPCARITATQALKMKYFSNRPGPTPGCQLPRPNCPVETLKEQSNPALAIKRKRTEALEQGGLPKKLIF
# Sequence of CDK7/cyclin H (P51946 whole entry partner, species assumed): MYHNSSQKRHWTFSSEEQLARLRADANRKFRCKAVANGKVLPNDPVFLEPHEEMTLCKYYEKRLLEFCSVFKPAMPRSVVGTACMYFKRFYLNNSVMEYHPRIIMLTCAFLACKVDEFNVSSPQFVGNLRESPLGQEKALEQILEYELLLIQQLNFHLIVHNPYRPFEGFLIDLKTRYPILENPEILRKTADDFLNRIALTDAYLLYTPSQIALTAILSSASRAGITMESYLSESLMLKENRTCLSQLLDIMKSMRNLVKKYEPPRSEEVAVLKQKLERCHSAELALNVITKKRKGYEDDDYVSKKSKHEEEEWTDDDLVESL
# Method in brief: as §2
# A549 = experiment: 72-h MTT cytotoxicity assay, A549; assay type: cell-based; settings: Homo sapiens, read-out: 72-h MTT IC50 A549, A549 cell line
# Method in brief: as §3
# CDK1/cyclin B = CDK1/cyclin B (Homo sapiens, UniProt P06493); experiment: Kinase assay, radioactive phosphate incorporation, CDK1/cyclin B; assay type: biochemical; settings: 100 μM ATP, 30° C.; read-out: Kinase inhibition IC50 CDK1/cyclin B
# Sequence of CDK1/cyclin B (P06493 whole entry, species assumed): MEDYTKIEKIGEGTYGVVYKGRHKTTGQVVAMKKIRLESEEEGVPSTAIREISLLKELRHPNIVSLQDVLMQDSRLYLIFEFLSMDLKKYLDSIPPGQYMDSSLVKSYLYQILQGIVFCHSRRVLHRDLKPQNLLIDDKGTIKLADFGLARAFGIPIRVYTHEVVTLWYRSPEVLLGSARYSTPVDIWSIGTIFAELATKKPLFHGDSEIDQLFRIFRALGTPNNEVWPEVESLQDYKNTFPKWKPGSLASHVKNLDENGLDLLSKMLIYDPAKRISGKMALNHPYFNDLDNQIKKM
# Sequence of CDK1/cyclin B (P14635 whole entry partner, species assumed): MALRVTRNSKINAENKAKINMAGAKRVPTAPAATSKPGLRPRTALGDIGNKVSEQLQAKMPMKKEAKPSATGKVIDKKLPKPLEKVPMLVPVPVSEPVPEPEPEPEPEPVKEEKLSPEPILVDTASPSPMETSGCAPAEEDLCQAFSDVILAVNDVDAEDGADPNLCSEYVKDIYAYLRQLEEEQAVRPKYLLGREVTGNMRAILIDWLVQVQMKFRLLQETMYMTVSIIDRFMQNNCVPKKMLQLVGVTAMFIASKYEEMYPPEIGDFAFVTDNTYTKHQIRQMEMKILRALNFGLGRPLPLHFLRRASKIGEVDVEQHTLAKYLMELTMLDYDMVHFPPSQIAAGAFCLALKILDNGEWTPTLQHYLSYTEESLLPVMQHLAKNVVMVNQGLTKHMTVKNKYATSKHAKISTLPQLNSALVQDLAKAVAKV
# Description: as §1
# HT29 = experiment: 72-h MTT cytotoxicity assay, HT29; assay type: cell-based; settings: Homo sapiens, HT-29, read-out: 72-h MTT IC50 HT29, HT29 cell line
# Method in brief: as §3
# GSK3β = GSK3β (Homo sapiens, UniProt P49841); experiment: Kinase assay, radioactive phosphate incorporation, GSK3β; assay type: biochemical; settings: 100 μM ATP, 30° C.; read-out: Kinase inhibition IC50 GSK3β
# Sequence of GSK3β (P49841 whole entry, species assumed): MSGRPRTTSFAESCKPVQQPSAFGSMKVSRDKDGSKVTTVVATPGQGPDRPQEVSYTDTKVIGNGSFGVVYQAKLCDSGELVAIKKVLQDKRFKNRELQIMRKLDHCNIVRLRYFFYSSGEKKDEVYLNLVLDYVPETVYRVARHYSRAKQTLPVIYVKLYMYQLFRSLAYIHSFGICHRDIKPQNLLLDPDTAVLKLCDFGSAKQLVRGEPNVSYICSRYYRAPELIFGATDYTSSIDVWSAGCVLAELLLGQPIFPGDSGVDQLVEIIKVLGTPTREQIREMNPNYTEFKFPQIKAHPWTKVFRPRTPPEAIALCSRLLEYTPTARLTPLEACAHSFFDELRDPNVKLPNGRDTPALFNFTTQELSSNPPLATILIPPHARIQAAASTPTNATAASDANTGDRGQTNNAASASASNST
# Method in brief: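 Steps: enzyme (2-4 μg) plus substrate in pH 7.4 buffer with DTT and vanadate; start with 100 μM ATP/15 mM MgCl2 containing [γ-32P]-ATP; incubate at 30° C; stop on ice; filter, wash with 75 mM orthophosphoric acid; scintillation count. Compounds diluted from DMSO stocks into 10% DMSO buffer.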
# CDK9/cyclin T1 = CDK9/cyclin T1 (Homo sapiens, UniProt P50750); experiment: Kinase assay, radioactive phosphate incorporation, CDK9/cyclin T1; assay type: biochemical; settings: 100 μM ATP, 30° C.; read-out: Kinase inhibition IC50 CDK9/cyclin T1
# Sequence of CDK9/cyclin T1 (P50750 whole entry, species assumed): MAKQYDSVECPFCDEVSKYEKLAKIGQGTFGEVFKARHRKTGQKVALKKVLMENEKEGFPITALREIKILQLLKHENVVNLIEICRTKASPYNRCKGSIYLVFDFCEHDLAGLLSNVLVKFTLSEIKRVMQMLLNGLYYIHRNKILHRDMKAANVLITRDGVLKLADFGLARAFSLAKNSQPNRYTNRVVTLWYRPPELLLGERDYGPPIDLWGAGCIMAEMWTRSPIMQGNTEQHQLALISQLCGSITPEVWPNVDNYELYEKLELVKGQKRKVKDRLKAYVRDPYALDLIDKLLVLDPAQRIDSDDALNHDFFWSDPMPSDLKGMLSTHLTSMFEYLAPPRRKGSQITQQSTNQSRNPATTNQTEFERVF
# Sequence of CDK9/cyclin T1 (O60563 whole entry partner, species assumed): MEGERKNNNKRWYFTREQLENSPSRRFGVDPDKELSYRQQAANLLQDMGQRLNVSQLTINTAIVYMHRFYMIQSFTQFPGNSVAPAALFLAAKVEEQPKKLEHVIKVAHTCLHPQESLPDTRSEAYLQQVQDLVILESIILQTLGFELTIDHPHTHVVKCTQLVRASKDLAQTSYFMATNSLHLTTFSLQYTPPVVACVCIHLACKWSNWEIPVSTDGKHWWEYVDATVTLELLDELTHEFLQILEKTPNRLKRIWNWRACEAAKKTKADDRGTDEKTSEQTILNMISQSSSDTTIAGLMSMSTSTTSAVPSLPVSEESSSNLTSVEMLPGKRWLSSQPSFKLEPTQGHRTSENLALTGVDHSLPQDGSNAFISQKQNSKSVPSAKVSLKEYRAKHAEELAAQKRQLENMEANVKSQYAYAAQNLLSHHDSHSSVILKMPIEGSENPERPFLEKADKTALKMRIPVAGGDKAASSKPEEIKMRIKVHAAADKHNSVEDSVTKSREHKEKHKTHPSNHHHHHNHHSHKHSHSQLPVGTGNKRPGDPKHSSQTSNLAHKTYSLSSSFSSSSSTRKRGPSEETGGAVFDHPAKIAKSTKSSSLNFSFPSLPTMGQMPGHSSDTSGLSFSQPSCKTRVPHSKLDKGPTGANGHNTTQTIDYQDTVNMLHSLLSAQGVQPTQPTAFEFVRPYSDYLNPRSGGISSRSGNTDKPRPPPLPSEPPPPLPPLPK
# Method in brief: as §2
# CDK2/cyclin A = CDK2/cyclin A (Homo sapiens, UniProt P24941); experiment: Kinase assay, radioactive phosphate incorporation, CDK2/cyclin A; assay type: biochemical; settings: 100 μM ATP, 30° C.; read-out: Kinase inhibition IC50 CDK2/cyclin A
# Description: as §1
# Sequence of CDK4/cyclin D1 (P11802 whole entry, species assumed): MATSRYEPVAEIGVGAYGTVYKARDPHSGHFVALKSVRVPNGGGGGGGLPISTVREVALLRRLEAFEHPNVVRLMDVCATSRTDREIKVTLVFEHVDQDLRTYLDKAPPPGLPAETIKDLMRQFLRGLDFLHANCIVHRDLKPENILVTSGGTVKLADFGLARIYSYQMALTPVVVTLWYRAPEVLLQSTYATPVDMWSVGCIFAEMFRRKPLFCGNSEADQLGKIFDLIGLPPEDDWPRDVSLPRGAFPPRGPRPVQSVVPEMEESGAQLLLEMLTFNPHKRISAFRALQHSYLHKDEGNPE
# Sequence of CDK4/cyclin D1 (P24385 whole entry partner, species assumed): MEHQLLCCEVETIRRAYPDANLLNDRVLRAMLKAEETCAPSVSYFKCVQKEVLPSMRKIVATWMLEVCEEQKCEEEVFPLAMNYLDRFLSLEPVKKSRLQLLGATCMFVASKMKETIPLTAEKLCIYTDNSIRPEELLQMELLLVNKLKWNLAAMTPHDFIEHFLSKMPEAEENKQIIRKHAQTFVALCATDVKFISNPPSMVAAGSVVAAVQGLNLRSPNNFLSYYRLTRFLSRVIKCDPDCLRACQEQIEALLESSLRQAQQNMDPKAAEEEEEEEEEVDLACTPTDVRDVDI
Structure (SMILES),IC50 (CDK4/cyclin D1),IC50 (CDK2/cyclin E),IC50 (CDK7/cyclin H),IC50 (CDK1/cyclin B),IC50 (GSK3β),IC50 (CDK9/cyclin T1),IC50 (CDK2/cyclin A),IC50 (Saos-2),IC50 [1],IC50 (A549),IC50 (HT29)
"CCN(C(C)=O)c1cccc(-c2ccnc(Nc3ccc(OC)cc3)n2)c1 [Compound 23, N-Ethyl-N-{3-[2-(4-methoxy-phenylamino)-pyrimidin-4-yl]-phenyl}-acetamide]",7600 nM,1100 nM,4300 nM,3600 nM,120 nM,400 nM,1200 nM,23000 nM,13100 ± 9800 nM,12900 nM,3400 nM
"Oc1cccc(Nc2nccc(-c3cccc(CNCc4ccccc4)c3)n2)c1 [Compound 28, 3-{4-[3-(Benzylamino-methyl)-phenyl]-pyrimidin-2-ylamino}-phenol]",2600 nM,860 nM,2600 nM,2100 nM,120 nM,35 nM,1000 nM,7100 nM,10400 ± 4900 nM,8000 nM,16000 nM
"O=[N+]([O-])c1cccc(Nc2nccc(-c3cccc(Cn4ccnc4)c3)n2)c1 [Compound 29, [4-(3-Imidazol-1-ylmethyl-phenyl)-pyrimidin-2-yl]-(3-nitro-phenyl)-amine]",62000 nM,140 nM,71 nM,2200 nM,50 nM,44 nM,5100 nM,4500 nM,3300 ± 1400 nM,3600 nM,1800 nM
"Oc1cccc(Nc2nccc(-c3cccc(Cn4cncn4)c3)n2)c1 [Compound 34, 3-[4-(3-[1,2,4]triazol-1-ylmethyl-phenyl)-pyrimidin-2-ylamino]-phenol]",1800 nM,240 nM,1200 nM,7000 nM,41 nM,130 nM,2400 nM,3700 nM,5400 ± 2500 nM,4100 nM,8300 nM
"O=[N+]([O-])c1cccc(Nc2nccc(-c3cccc(CN4CCOCC4)c3)n2)c1 [Compound 39, [4-(3-Morpholin-4-ylmethyl-phenyl)-pyrimidin-2-yl]-(3-nitro-phenyl)-amine]",2410 nM,120 nM,38 nM,350 nM,150 nM,110 nM,2400 nM,8000 nM,5600 ± 3200 nM,6800 nM,2000 nM

# Continued, in another order:
IC50 (CDK4/cyclin D1),IC50 (CDK2/cyclin E),IC50 (CDK7/cyclin H),IC50 (CDK1/cyclin B),IC50 (GSK3β),IC50 (CDK9/cyclin T1),IC50 (CDK2/cyclin A),Structure (SMILES),IC50 (Saos-2),IC50 [1],IC50 (A549),IC50 (HT29)
1100 nM,350 nM,2500 nM,3900 nM,51 nM,28 nM,3400 nM,"CCN(Cc1cccc(-c2ccnc(Nc3ccc(OC)nc3)n2)c1)C(C)C [Compound 53, (4-{3-[(Ethyl-isopropyl-amino)-methyl]-phenyl}-pyrimidin-2-yl)-(6-methoxy-pyridin-3-yl)-amine]",3200 nM,2100 ± 1200 nM,2200 nM,850 nM
4500 nM,300 nM,130 nM,2000 nM,320 nM,22 nM,820 nM,"CN1CCN(Cc2cccc(-c3ccnc(Nc4cccc([N+](=O)[O-])c4)n3)c2)CC1 [Compound 54, {4-[3-(4-Methyl-piperazin-1-ylmethyl)-phenyl]-pyrimidin-2-yl}-(3-nitro-phenyl)-amine]",1300 nM,1100 ± 300 nM,1100 nM,770 nM
1700 nM,60 nM,30 nM,1100 nM,20 nM,< 1 nM,440 nM,"Cc1ccc(Nc2nccc(-c3cccc(CN4CCCCC4CO)c3)n2)cc1[N+](=O)[O-] (stereo not drawn) [Compound 108, (1-{3-[2-(4-Methyl-3-nitro-phenylamino)-pyrimidin-4-yl]-benzyl}-piperidin-2-yl)-methanol]",–,–,–,–
